{"source": "patent US12042492B2", "about": "(priority 2020, dated 2024)", "tested_on": "N2a cells", "test": "qRT-PCR mRNA expression in N2a cells treated with ligand 1", "type": "cell-based, mouse", "experimental": "The N2a cells grown for 6 days in a serum-free medium (1:1 mixture of DMEM and OptiMEM, plus penicillin and streptomycin (Invitrogen, Carlsbad, CA, USA) until the cells developed neuronal processes. As shown in (FIG. 10), these cells were used for 4 groups—one control group and 3 treatment groups. 1) untreated N2a cells (the control group), 2) N2a cells treated with ligand 1 (N2a+ligand 1), 3) N2a cells transfected mAPP with the (lipofectamine) (20 μM final concentration for 6 hrs (mAPP), 4) N2a cells transfected with mAPP cDNA for 6 hrs, treated with ligand 1 (mAPP+ligand 1 treatment group), N2a cells treated with ligand 1 for 24 hrs and then treated with the mAPP cDNA for 6 hrs (ligand 1+mAPP treatment group). As shown in (FIG. 10), the inventors performed 4 independent cell cultures and treatments for all experiments (n=4).\nmRNA levels of mitochondrial dynamics and mitochondrial biogenesis and synaptic genes. Using the reagent TriZol (Invitrogen), the inventors isolated total RNA from 4 independent treatments of N2a cells (n=4) from control (untreated N2a cells) and experimental treatments (N2a cells treated with Ligand 1; N2a cells transfected with mAPP; N2a cells transfected with mAPP and then treated with Ligand 1. Using primer express Software (Applied Biosystems), the inventors designed the oligonucleotide primers for the housekeeping genes β-actin, GDPH; APP-related genes (APP, BACE1 and PSN1); mitochondrial structural genes; fission (Drp1 and Fis1); fusion genes (MFN1, MFN2, Opa1) (54), mitochondrial biogenesis genes (PGC1α, Nrf1, Nrf2, and Tfam) (Manczak et al., 2019), and synaptic proteins (SYN, PSD95 and MAP2). The primer sequences and amplicon sizes are listed in (Table 1). With SYBR-Green chemistry-based quantitative real-time RT-PCR, the inventors measured mRNA expression of the genes mentioned above as described by Manczak et al. 2019(54). Briefly, 2 μg of DNAse-treated total RNA was used as starting material, to which the inventors added 1 μl of oligo (dT), 1 μl of 10 mM dNTPs, 4 μl of 5× first strand buffer, 2 μl of 0.1 M DTT, and 1 μl RNAse outout. The reagents RNA, dT), and dNTPs were mixed first, then heated at 65° C. for 5 min, and finally chilled on ice until the remaining components were added. The samples were incubated at 42° C. for 2 min, and then 1 μl of Superscript II (40 U/μl) was added. The samples were then incubated at 42° C. for 50 min, at which time the reaction was inactivated by heating at 70° C. for 15 min.\nQuantitative real-time PCR amplification reactions were performed in N2a cells in an ABI Prism 7900 sequence detection system (Applied Biosystems, Foster City, CA) in a 25-μl volume of total reaction mixture. The reaction mixture consisted of 1×PCR buffer containing SYBR-Green; 3 mM MgCl2; 100 nm of each primer; 200 nm of dATP, dGTP, and dCTP each; 400 nm of dUTP; 0.01 U/μl of AmpErase UNG; and 0.05 U/μl of AmpliTaq Gold. A 20 ng cDNA template was added to each reaction mixture.\nThe CT-values of β-actin was tested to determine the unregulated endogenous reference gene in N2a cells that were treated with Aβ and protective molecules, and in untreated N2a cells. In the latter case, the CT-value was similar in untreated and N2a cells treated with MTAs and Aβ. The CT-value is an important quantitative parameter in real-time PCR analysis as described in Gutala and Reddy (2004) (55). All RT-PCR reactions were carried out in triplicate, with no template control. The PCR conditions were: 50° C. for 2 min and 95° C. for 10 min, followed by 40 cycles of 95° C. for 15 sec and 60° C. for 1 min. The fluorescent spectra were recorded during the elongation phase of each PCR cycle. To distinguish specific amplicons from non-specific amplifications, a dissociation curve was generated. […]", "key": {"[1]": {"conditions": "N2a + Ligand1 relative to untreated N2a cells"}, "[2]": {"conditions": "N2a + Ligand1 relative to untreated N2a cells, negative = decrease"}, "[3]": {"conditions": "ligand 1 treated N2a cells relative to untreated cells, size of the decrease"}, "[4]": {"conditions": "ligand 1 treated N2a cells relative to untreated cells, size of the decrease, no statistical significance"}}, "note": "Marks after values point to notes of the source that are not given here."}
{"substance": "[(6As,8S,10aS,12aS)-10a, 12a-dimethyl-2-oxo-3,4,4a,4b,5,6,6a,7,8,9,10,10b,11,12-tetradecahydro-1H-naphtho[2,1-f]quinolin-8-yl] 4-[4-[bis(2-chloroethyl)amino]phenyl]butanoate [Ligand 1]", "values": [{"measurement": "mRNA fold change Mfn1", "setting": "[1]", "value": 1.1, "unit": "fold"}, {"measurement": "mRNA fold change Mfn2", "setting": "[1]", "value": 1.2, "unit": "fold"}, {"measurement": "mRNA fold change Nrf1", "setting": "[1]", "value": 1.2, "unit": "fold"}, {"measurement": "mRNA fold change Nrf2", "setting": "[1]", "value": 1.3, "unit": "fold"}, {"measurement": "mRNA fold change OPA1", "setting": "[1]", "value": 1.4, "unit": "fold"}, {"measurement": "mRNA fold change PSD95", "setting": "[1]", "value": 1.2, "unit": "fold"}, {"measurement": "mRNA fold change Synaptophysin", "setting": "[1]", "value": 1.4, "unit": "fold"}, {"measurement": "mRNA fold change TFAM", "setting": "[1]", "value": 1.2, "unit": "fold"}, {"measurement": "mRNA fold change PGC1a", "setting": "N2a + Ligand1 relative to untreated N2a cells, listed as Ligand1", "value": "1.6* fold"}, {"measurement": "mRNA fold change PGC1a", "setting": "N2a + Ligand1 relative to untreated N2a cells, listed as ligand 1", "value": 1.6, "unit": "fold"}, {"measurement": "mRNA fold change APP", "setting": "[2]", "value": "−1.2", "unit": "fold"}, {"measurement": "mRNA fold change BACE1", "setting": "[2]", "value": "−1.8** fold"}, {"measurement": "mRNA fold change Drp1", "setting": "[2]", "value": "−1.1", "unit": "fold"}, {"measurement": "mRNA fold change Fis1", "setting": "[2]", "value": "−1.1", "unit": "fold"}, {"measurement": "mRNA fold change Presenilin1", "setting": "[2]", "value": "−1.3", "unit": "fold"}, {"measurement": "APP mRNA, fold decreased", "setting": "[3]", "value": 1.8, "unit": "fold"}, {"measurement": "BACE1 mRNA, fold decreased", "setting": "[3]", "value": 1.2, "unit": "fold"}, {"measurement": "PS1 mRNA, fold decreased", "setting": "[3]", "value": 1.3, "unit": "fold"}, {"measurement": "Drp1 mRNA, fold reduced", "setting": "[4]", "value": 1.1, "unit": "fold"}, {"measurement": "Fis1 mRNA, fold reduced", "setting": "[4]", "value": 1.1, "unit": "fold"}]}
